Paper PMC11180795 (Frontiers in Pharmacology, 2024)

How the values were obtained:
IL-4 = experiment: Th1/Th2 cytokine measurement (Cytometric Bead Array) in LPS-stimulated Raw 264.7 cells, IL-4; type: cell-based, Murine; conditions: compound at 20 µM, LPS 0.1 μg/mL, 24 h; stimulated untreated control 1.01 pg/mL
Method: (§1) Raw 264.7 cells were seeded at 2 × 10^5 cells/mL in a 48-well microplate and allowed to adhere for 24 h, then treated with LPS 0.1 μg/mL and with compounds (1), (5) and (6) at 20 µM. Untreated cells and indomethacin (10 µM) were used as controls. After 24 h of incubation, the supernatant was collected and the amount of pro-inflammatory Th1 cytokines (IFN-γ, TNF-α, and IL-2) and anti-inflammatory Th2 cytokines (IL-4, IL-6, and IL-10) released measured. The experiment was performed according to the manufacturer’s instructions using BD™ Cytometric Bead Array (CBA) […] Th1/Th2 Cytokine Kit (BD-Biosciences), and data were acquired on a BD LSR Fortessa™ cell analyzer flow cytometer.

COX-1 = molecular target: T1, COX-1 (Mus musculus, UniProt P22437); experiment: Fluorometric COX activity assay in lysate of LPS-treated Raw 264.7 cells, COX-1; type: cell-based, Murine; conditions: compound at 20 µM, LPS 0.1 μg/mL, 24 h; untreated control 85.19 µU/mg
T1 construct: The cell lysate was centrifuged at 12000 x g for 3 min and the supernatant was collected for COX activity assay; endogenous in cells
T1 sequence (P22437 27-602): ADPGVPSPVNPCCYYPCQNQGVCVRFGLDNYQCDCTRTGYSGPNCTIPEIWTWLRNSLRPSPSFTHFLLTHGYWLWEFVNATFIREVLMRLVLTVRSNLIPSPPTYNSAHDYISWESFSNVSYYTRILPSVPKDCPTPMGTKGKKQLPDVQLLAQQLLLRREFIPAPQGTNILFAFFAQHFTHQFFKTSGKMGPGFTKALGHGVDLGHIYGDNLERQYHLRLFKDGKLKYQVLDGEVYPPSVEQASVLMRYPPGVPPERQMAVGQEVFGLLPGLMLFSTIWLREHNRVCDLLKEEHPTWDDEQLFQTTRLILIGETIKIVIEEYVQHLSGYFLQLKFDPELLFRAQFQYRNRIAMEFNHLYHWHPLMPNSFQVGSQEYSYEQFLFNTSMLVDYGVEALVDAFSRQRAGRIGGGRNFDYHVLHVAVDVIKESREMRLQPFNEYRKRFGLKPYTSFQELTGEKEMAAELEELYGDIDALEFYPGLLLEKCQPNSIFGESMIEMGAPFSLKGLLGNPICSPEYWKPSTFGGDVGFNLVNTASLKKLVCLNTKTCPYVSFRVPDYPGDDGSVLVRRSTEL
Method: The fluorometric cyclooxygenase activity assay kit (Biovision) was used to evaluate the activity of COX-1 and COX-2 enzymes. Raw 264.7 cells were seeded at 2 × 10^5 cells/mL in a 48-well microplate, and allowed to adhere for 24 h, then treated with LPS 0.1 μg/mL and compounds (1), (5) and (6) at 20 µM against Raw 264.7 cells. After 24 h the cyclooxygenase enzyme (COX-1 and COX-2) activity assay was performed. Cells were detached with TNE buffer (Tris 40 mM, NaCl 150 mM, EDTA 1 mM) and washed with PBS (1x), then re-suspended in 1 mL PBS (1x), transferred into 1.5 mL tube, and centrifuged at 500 x g for 3 min. The pellet was then re-suspended in 0.5 mL of lysis buffer with a protease inhibitor cocktail, vortexed, and incubated at 4°C for 5 min. The cell lysate was centrifuged at 12000 x g for 3 min and the supernatant was collected for COX activity assay. The COX activity was assessed using the fluorometric cyclooxygenase activity assay kit (Biovision) following the manufacturer’s instructions. The assay includes COX-1 and COX-2 specific inhibitors to differentiate the activity of COX-1 and COX-2 as well as other peroxidases. Indomethacin (10 µM) was used as a standard drug and appropriate controls were also included.

IL-6 = experiment: Th1/Th2 cytokine measurement (Cytometric Bead Array) in LPS-stimulated Raw 264.7 cells, IL-6; type: cell-based, Murine; conditions: compound at 20 µM, LPS 0.1 μg/mL, 24 h; stimulated untreated control 175.96 pg/mL
Method: as §1

IL-2 = experiment: Th1/Th2 cytokine measurement (Cytometric Bead Array) in LPS-stimulated Raw 264.7 cells, IL-2; type: cell-based, Murine; conditions: compound at 20 µM, vs stimulated and untreated control
Method: as §1

Row | COX-1 activity (COX-1) | melting point | SMILES | IL-4 level (IL-4) | IL-6 level (IL-6) | effect on IL-2 production (in words) (IL-2)
1 | 52.55 µU/mg |  | CC(C)=CCc1c2c(c3oc4c(O)cccc4c(=O)c3c1O)C=CC(C)(C)O2 [Compound 1, Ananixanthone] | 1.23 pg/mL | 144.25 pg/mL | 
2 | 32.28 µU/mg | 103 °C | CC(C)=CCC/C(C)=C/C[C@]12C[C@@H](CC=C(C)C)C(C)(C)[C@](C/C=C(\C)CCC=C(C)C)(C(=O)C(C(=O)c3ccc(O)c(O)c3)=C1O)C2=O [Compound 5, Guttiferone O] | 2.25 pg/mL |  | significantly reduces
3 |  | 82 °C | CC(C)=CCC/C(C)=C/C[C@]12C[C@@H](CC=C(C)C)C(C)(C)[C@](CC=C(C)C)(C(=O)C(C(=O)c3ccc(O)c(O)c3)=C1O)C2=O [Compound 6, Guttiferone M] | 0.94 pg/mL |  | limited effect
